Source: paper PMC10084752, “Heterologous Expression of the Hot Pepper ABA 8’-Hydroxylase in Escherichia coli for Phaseic Acid Production” (Journal of Microbiology and Biotechnology, 2023)

Biological target: T1, CaCYP707A2 (Capsicum annuum, UniProt X2C029)
T1 construct: gene CYP707A70; full-length, no N-terminal modification; pCW ori(+) in E. coli Rosetta (DE3) pLysS; 54 kDa
T1 sequence (X2C029 1-477): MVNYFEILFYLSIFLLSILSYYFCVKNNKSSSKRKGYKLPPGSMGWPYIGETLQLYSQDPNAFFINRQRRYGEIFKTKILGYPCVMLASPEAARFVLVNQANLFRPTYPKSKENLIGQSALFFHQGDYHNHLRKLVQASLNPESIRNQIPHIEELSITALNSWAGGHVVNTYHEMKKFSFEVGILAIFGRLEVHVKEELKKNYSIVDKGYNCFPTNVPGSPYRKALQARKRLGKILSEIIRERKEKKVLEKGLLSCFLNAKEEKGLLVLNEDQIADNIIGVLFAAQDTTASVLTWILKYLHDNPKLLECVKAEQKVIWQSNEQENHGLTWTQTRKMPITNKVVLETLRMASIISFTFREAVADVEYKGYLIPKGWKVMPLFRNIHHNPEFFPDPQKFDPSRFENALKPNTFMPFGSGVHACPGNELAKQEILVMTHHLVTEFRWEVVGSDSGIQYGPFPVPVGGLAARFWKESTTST
Test: spectral binding titration (type I UV-visible difference spectrum)

CC1=CC(=O)CC(C)(C)C1(O)/C=C/C(C)=C\C(=O)O (stereo in doubt) [(+)-ABA] showed a Kd of 5.8 ± 0.93 µM.
